Article PMC6220272, “Scaffold-Hopping from Synthetic Drugs by Holistic Molecular Representation” (Scientific Reports, 2018)

Legend:
Format in all cases: cell-based
LXRα = target: T1, LXRα (Homo sapiens, UniProt Q13133); experiment: Gal4 hybrid reporter gene assay LXRα (selectivity profiling)
T1 construct: expressed in transfected cells; host or cells: HEK293T
T1 sequence (Q13133 209-447 limits assumed): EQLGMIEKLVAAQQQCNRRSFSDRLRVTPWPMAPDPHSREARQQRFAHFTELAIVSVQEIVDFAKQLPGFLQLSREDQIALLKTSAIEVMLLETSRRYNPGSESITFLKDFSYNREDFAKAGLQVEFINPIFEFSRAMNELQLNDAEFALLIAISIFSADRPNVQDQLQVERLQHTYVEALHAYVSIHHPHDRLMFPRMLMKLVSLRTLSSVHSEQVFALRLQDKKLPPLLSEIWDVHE
Procedure: (§1) Moreover, 7 was characterized for its ability to modulate RXR target gene expression under more physiological conditions. Hepatoma cells (HepG2) were incubated with 7 (30 µM) or reference RXR agonist bexarotene (9, 1 µM) for eight hours and mRNA expression of RXR regulated genes ATP-binding cassette transporter A1 (ABCA1), angiopoietin like protein 4 (ANGPTL4) and apolipoprotein E (ApoE) was analysed by quantitative real-time PCR.
(§2) The Gal4 hybrid reporter gene assays were conducted as reported previously[39]–[41]. pFA-CMV-based constructs comprising the ligand binding domain of the human nuclear receptor in question were used as expression plasmids for the chimera receptors. pFR-Luc (Stratagene) served as reporter plasmid and pRL-SV40 (Promega) for normalization of transfection efficiency and cell growth. The assays were conducted in 96-well format in HEK293T cells that were cultured as described previously[39]–[41]. Transient transfection was carried out using Lipofectamine LTX reagent (Invitrogen) according to the manufacturer’s protocol. After transfection and incubation with test compounds (12–14 h), cells were assayed for luciferase activity using Dual-Glo™ Luciferase Assay System (Promega) according to the manufacturer’s protocol. Luminescence was measured with an Infinite M200 luminometer (Tecan Deutschland GmbH). […]

PPARγ = target: T2, PPARγ (Homo sapiens, UniProt P37231); experiment: Gal4 hybrid reporter gene assay PPARγ (selectivity profiling)
T2 construct: expressed in transfected cells; host or cells: HEK293T
T2 sequence (P37231 238-503 limits assumed): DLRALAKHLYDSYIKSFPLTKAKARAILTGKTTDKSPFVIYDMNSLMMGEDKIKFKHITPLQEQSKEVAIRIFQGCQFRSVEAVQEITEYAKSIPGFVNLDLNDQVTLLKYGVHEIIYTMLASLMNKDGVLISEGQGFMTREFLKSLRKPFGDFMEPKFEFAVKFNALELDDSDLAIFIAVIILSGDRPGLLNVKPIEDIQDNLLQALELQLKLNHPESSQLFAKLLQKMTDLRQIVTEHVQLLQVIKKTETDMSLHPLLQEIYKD
Procedure: as §1, §2

[1] = target: T3, constitutive androstane receptor [CAR] (Homo sapiens, UniProt Q14994); experiment: Gal4 hybrid reporter gene assay CAR (selectivity profiling)
T3 construct: expressed in transfected cells; host or cells: HEK293T
T3 sequence (Q14994 109-352 limits assumed): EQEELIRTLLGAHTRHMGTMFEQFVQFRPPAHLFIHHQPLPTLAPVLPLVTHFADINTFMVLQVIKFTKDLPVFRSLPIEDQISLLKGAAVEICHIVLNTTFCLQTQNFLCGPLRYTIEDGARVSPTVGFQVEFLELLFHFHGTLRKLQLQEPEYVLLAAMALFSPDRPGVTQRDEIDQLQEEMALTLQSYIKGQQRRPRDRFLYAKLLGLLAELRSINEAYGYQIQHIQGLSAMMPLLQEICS
Procedure: as §1, §2

[2] = target: T4, human RXRγ ligand binding domain (Gal4 hybrid receptor) (Homo sapiens, UniProt P48443); experiment: Gal4 hybrid reporter gene assay RXRγ; conditions: HEK293T cells, n ≥ 4, read-out: RXRγ EC50 ± SEM
T4 construct: expressed in transfected cells; host or cells: HEK293T
T4 sequence (P48443 231-459 limits assumed): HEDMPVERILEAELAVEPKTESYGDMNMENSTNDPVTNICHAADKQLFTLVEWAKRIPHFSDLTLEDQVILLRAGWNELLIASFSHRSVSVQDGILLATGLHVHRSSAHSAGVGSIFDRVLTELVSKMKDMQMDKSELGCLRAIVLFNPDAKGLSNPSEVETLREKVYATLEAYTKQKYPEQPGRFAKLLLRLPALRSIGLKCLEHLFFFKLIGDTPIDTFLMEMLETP
Procedure: The 20 top-ranked synthetic compounds were selected and tested in vitro for their modulatory activity on RXR (Supplementary Table 1). Compounds were tested in specific hybrid reporter gene assays for RXRα, RXRβ and RXRγ modulation[39]–[41]. These assays rely on a constitutively expressed hybrid receptor composed of the respective human RXR ligand binding domain and the DNA binding domain of the Gal4 receptor from yeast. A Gal4 responsive firefly luciferase was used as reporter gene and constitutively expressed renilla luciferase served as internal control for transfection efficiency and test compound toxicity. All selected compounds were tested at 50 µM concentration on RXRα and for active compounds (Supplementary Fig. 1), dose response curves were recorded on all three RXR subtypes.
The Gal4 hybrid reporter gene assays were conducted as reported previously[39]–[41]. pFA-CMV-based constructs comprising the ligand binding domain of the human nuclear receptor in question were used as expression plasmids for the chimera receptors. pFR-Luc (Stratagene) served as reporter plasmid and pRL-SV40 (Promega) for normalization of transfection efficiency and cell growth. The assays were conducted in 96-well format in HEK293T cells that were cultured as described previously[39]–[41]. Transient transfection was carried out using Lipofectamine LTX reagent (Invitrogen) according to the manufacturer’s protocol. After transfection and incubation with test compounds (12–14 h), cells were assayed for luciferase activity using Dual-Glo™ Luciferase Assay System (Promega) according to the manufacturer’s protocol. Luminescence was measured with an Infinite M200 luminometer (Tecan Deutschland GmbH). All hybrid assays were validated with reference agonists (PPARα: GW7647; PPARγ: pioglitazone; PPARδ: L165,041; LXRα/β: T0901317; FXR: GW4064; RXRs: bexarotene; RARs: tretinoin; VDR: calcitriol; CAR: CITCO; PXR: SR12813) which yielded EC50 values in agreement with literature. The assays were conducted in duplicates with at least two independent repeats and for active compounds repeated without hybrid receptor coding DNA for every test compound at the highest tested concentration to exclude unspecific effects.
Supplementary Figure 2. Dose-response curves for RXRα activation. Compounds were tested in specific hybrid reporter gene assays for RXRα, RXRβ and RXRγ modulation.^1–3 These assays rely on a constitutively expressed hybrid receptor composed of the respective human RXR ligand binding domain and the DNA binding domain of the Gal4 receptor from yeast. A Gal4 responsive firefly luciferase was used as reporter gene and constitutively expressed renilla luciferase served as internal control for transfection efficiency and test compound toxicity. […]

[3] = target: T5, farnesoid X receptor [FXR] (Homo sapiens, UniProt Q96RI1); experiment: Gal4 hybrid reporter gene assay FXR (selectivity profiling)
T5 construct: expressed in transfected cells; host or cells: HEK293T
T5 sequence (Q96RI1 262-486 limits assumed): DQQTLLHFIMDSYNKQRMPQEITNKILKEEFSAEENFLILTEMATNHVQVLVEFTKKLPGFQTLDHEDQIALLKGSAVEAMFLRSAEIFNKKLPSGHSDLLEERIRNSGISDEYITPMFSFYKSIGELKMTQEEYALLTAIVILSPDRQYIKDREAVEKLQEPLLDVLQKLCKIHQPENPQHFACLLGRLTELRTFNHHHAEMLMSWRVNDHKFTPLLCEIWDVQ
Procedure: as §1, §2

vitamin D receptor [VDR] = target: T6, vitamin D receptor [VDR] (Homo sapiens, UniProt P11473); experiment: Gal4 hybrid reporter gene assay VDR (selectivity profiling)
T6 construct: expressed in transfected cells; host or cells: HEK293T
T6 sequence (P11473 127-423 limits assumed): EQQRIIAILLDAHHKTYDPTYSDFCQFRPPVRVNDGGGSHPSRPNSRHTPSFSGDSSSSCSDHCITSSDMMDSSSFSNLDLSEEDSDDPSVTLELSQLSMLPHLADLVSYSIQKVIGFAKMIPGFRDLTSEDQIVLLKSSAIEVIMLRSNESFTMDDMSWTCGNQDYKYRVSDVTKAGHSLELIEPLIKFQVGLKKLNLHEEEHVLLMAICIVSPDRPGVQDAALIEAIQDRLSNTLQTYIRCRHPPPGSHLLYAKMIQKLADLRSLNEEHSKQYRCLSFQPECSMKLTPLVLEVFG
Procedure: as §1, §2

- activity on LXRα (LXRα): no activity
- activity on PPARγ (PPARγ): no activity
- activity on CAR [1]: no activity
- EC50 [2]: 28.2 ± 0.1 µM
- activity on FXR [3]: no activity
- activity on VDR (vitamin D receptor [VDR]): no activity
SMILES: CC(C)(C)c1cc(/C=N/NC(=O)c2ccc(N)cc2)cc(C(C)(C)C)c1 [Compound 7]
